Several values for one entry are separate records, joined by “and”; a condition that tells them apart may be missing. Identical values can stand only once.
Assay: Dosimetry sub-study, first 6 patients, cycle 1 (SPECT/CT, TIAC, OLINDA 2.2.3)
Format: in vivo, human
Details: for projected cumulative absorbed dose to the kidneys after 6 cycles: 7.4 GBq per cycle, number of cycles x absorbed dose at cycle 1
Experimental: Six subjects were administered a target dose of 7.4 GBq (mean 7.52±0.16 GBq) of ^177Lu-PSMA-I&T. Following the infusion, subjects underwent single photon emission computed tomography (SPECT)/computed tomography (CT) imaging at four timepoints (4 h, 24 h, 48 h, 168 h). Image data were analysed to compute time integrated activity coefficients (TIAC) in each organ of interest and/or with appreciable and meaningful ^177Lu-PSMA-I&T activity above background which included kidneys, bladder, liver, lumbar vertebrae L2-L4, lacrimal glands, salivary glands, intestine and whole body. To compute subject-specific organ doses, organ-level TIAC data were entered into Organ Level Internal Dose Assessment, OLINDA 2.2.3 and resulting organ doses for each target organ and whole-body effective dose were collated and averaged.
Patients received SPECT/CT imaging (anatomical coverage included the salivary gland and extended through the pelvis) following the injection of 7.4 (+/−10%) GBq of ^177Lu-PSMA-I&T (detailed injected doses are reported). All patients completed the first treatment cycle and the acquisition of images was carried out without any protocol deviation.
The imaging data was analyzed using Invicro's VivoQuant software, a validated software used in a 21 CFR § 11-compliant workflow. The general quantification approach was based on the principles detailed in MIRD Pamphlet No. 16 (Siegel J, Thomas S, Stubbs J, et al. MIRD pamphlet no. 16: Techniques for quantitative radiopharmaceutical biodistribution data acquisition and analysis for use in human radiation dose estimates. J Nucl Med. 1999; 40:37S-61S and MIRD Primer for Absorbed Dose Calculations, Revised Ed. J Nucl Med. 1991), No 23 (Dewaraja Y K, Frey E C, Sgouros G, et al. MIRD pamphlet No. 23: quantitative SPECT for patient-specific 3-dimensional dosimetry in internal radionuclide therapy. J Nucl Med. 2012; 53(8):1310-1325), and No 26 (Ljungberg M, Celler A, Konijnenberg M W, et al. MIRD Pamphlet No. 26: Joint EANM/MIRD Guidelines for Quantitative ^177Lu SPECT Applied for Dosimetry of Radiopharmaceutical Therapy. J Nucl Med. 2016; 57(1):151-162), as appropriate.
Each SPECT image was co-registered with its corresponding CT. Image calibration was performed to convert the counts measured on the SPECT images to activity (Bq) (Ljungberg et al. MIRD Pamphlet No. 26: Joint EANM/MIRD Guidelines for Quantitative ^177Lu SPECT Applied for Dosimetry of Radiopharmaceutical Therapy. J Nucl Med. 2016; 57(1):151-162). The same SPECT/CT system was used in each patient for the entirety of the dosimetry study.
Regions of interest (kidneys, bladder, liver, lumbar vertebrae L2-L4, lacrimal glands, salivary glands and whole body) were drawn on each dataset by a trained image analyst. Lumbar vertebrae L2-L4 was delineated on the CT images (Hindorf C, Glatting G, Chiesa C, Linden O, Flux G, Committee ED. EANM Dosimetry Committee guidelines for bone marrow and whole-body dosimetry. Eur J Nucl Med Mol Imaging. 2010; 37(6):1238-1250) to derived red marrow doses. For kidneys, an ROI was drawn on the SPECT image to include all the uptake seen in the kidneys. Similarly for lacrimal glands, all the uptake observed on the SPECT image at the lacrimal glands location was segmented.
Time-activity curves of the activity in each ROI as a function of time were plotted. These curves were normalized by the known injected activity to arrive at units of fraction of injected activity. Calculations of time-integrated activity coefficient (TIAC, in units of hours) were performed for each region of interest listed above.
Clearance of the tracer was derived from a data-appropriate fit of each organ TAC. The curve fit was optimized using the Akaike information criterion (AIC) and checked visually by an image scientist. Depending on the shape of the TAC, the data was fitted with the sum of one, two or three exponentials or using a rise and fall model. […]

SMILES: O=C([O-])CC[C@H](NC(=O)N[C@@H](CCCCNC(=O)CCCCCCC(=O)NCCCC[C@@H](NC(=O)[C@@H](Cc1ccccc1)NC(=O)[C@@H](Cc1ccc(O)c(I)c1)NC(=O)CC[C@H](C(=O)[O-])N1CCN(CC(=O)[O-])CCN(CC(=O)[O-])CCN(CC(=O)[O-])CC1)C(=O)[O-])C(=O)[O-])C(=O)[O-].[177Lu+3].[H+].[H+].[H+].[H+].[H+] [^177Lu-PSMA I&T, (3S,7S,26R,29R,32R,37R)-29-benzyl-32-(4-hydroxy-3-iodobenzyl)-5,13,20,28,31,34-hexaoxo-37-(4,7,10-tris(carboxymethyl)-1,4,7,10-tetraazacyclododecan-1-yl)-4,6,12,21,27,30,33-heptaazaheptatriacontane-1,3,7,26,37-pentacarboxylic acid; lutetium-177 (III)]
- Absorbed Dose, Adrenals, Mean (6 patients, cycle 1): 0.02 Gy/GBq
- Absorbed Dose, Brain, Mean (6 patients, cycle 1): 0.01 Gy/GBq
- Absorbed Dose, Esophagus, Mean (6 patients, cycle 1): 0.01 Gy/GBq
- Absorbed Dose, Eyes, Mean (6 patients, cycle 1): 0.01 Gy/GBq
- Absorbed Dose, Gallbladder wall, Mean (6 patients, cycle 1): 0.02 Gy/GBq
- Absorbed Dose, Heart wall, Mean (6 patients, cycle 1): 0.01 Gy/GBq
- Absorbed Dose, Kidneys, Mean (6 patients, cycle 1): 0.46 Gy/GBq
- Absorbed Dose, Left colon, Mean (6 patients, cycle 1): 0.39 Gy/GBq
- Absorbed Dose, Liver, Mean (6 patients, cycle 1): 0.03 Gy/GBq
- Absorbed Dose, Lungs, Mean (6 patients, cycle 1): 0.01 Gy/GBq
- Absorbed Dose, Osteogenic cells, Mean (6 patients, cycle 1): 0.02 Gy/GBq
- Absorbed Dose, Pancreas, Mean (6 patients, cycle 1): 0.02 Gy/GBq
- Absorbed Dose, Prostate, Mean (6 patients, cycle 1): 0.02 Gy/GBq
- Absorbed Dose, Rectum, Mean (6 patients, cycle 1): 0.37 Gy/GBq
- Absorbed Dose, Red Marrow, Mean (6 patients, cycle 1): 0.02 Gy/GBq
- Absorbed Dose, Right colon, Mean (6 patients, cycle 1): 0.21 Gy/GBq
- Absorbed Dose, Salivary Glands, Mean (6 patients, cycle 1): 0.10 Gy/GBq
- Absorbed Dose, Small intestine, Mean (6 patients, cycle 1): 0.05 Gy/GBq
- Absorbed Dose, Spleen, Mean (6 patients, cycle 1): 0.02 Gy/GBq
- Absorbed Dose, Stomach Wall, Mean (6 patients, cycle 1): 0.01 Gy/GBq
- Absorbed Dose, Testes, Mean (6 patients, cycle 1): 0.01 Gy/GBq
- Absorbed Dose, Thymus, Mean (6 patients, cycle 1): 0.01 Gy/GBq
- Absorbed Dose, Thyroid, Mean (6 patients, cycle 1): 0.01 Gy/GBq
- Absorbed Dose, Total Body, Mean (6 patients, cycle 1): 0.02 Gy/GBq
- Absorbed Dose, Urinary Bladder wall, Mean (6 patients, cycle 1): 0.37 Gy/GBq
- absorbed dose, kidneys (6 patients, cycle 1): 0.46±0.23 Gy/GBq
- absorbed dose, lacrimal glands (6 patients, cycle 1): 0.77±0.25 Gy/GBq
- absorbed dose, left colon (6 patients, cycle 1): 0.39±0.32 Gy/GBq
- absorbed dose, rectum (6 patients, cycle 1): 0.37±0.31 Gy/GBq
- absorbed dose, right colon (6 patients, cycle 1): 0.21±0.17 Gy/GBq
- absorbed dose, salivary glands (6 patients, cycle 1): 0.10±0.06 Gy/GBq
- absorbed dose, urinary bladder wall (6 patients, cycle 1): 0.37±0.20 Gy/GBq
- Whole-body time integrated activity coefficient, mean (6 patients, cycle 1, 7.4 GBq, SD 6.7): 16.6 h
- projected cumulative absorbed dose to the kidneys after 6 cycles (6 patients): 20.4±10.2 Gy
- projected cumulative absorbed dose to the kidneys after 6 cycles (6 patients, listed as 177Lu-PSMA-I&T): 20.4 Gy
- risk of kidney toxicities with 6 treatment cycles (conclusion from dosimetry results): possible without the risk of kidney toxicities
- Effective Dose Cycle 1 (individual patients (one per Subject ID)): 9.03E−02 mSv/MBq and 3.11E−02 mSv/MBq and 1.11E−01 mSv/MBq and 6.97E−02 mSv/MBq and 8.11E−02 mSv/MBq and 2.68E−02 mSv/MBq
- Kidneys Absorbed Dose (Gy/GBq) (individual patients (one per Subject ID), cycle 1): 0.27 Gy/GBq and 0.22 Gy/GBq and 0.48 Gy/GBq and 0.64 Gy/GBq and 0.34 Gy/GBq and 0.81 Gy/GBq
- Kidneys Absorbed Dose (Gy) (individual patients (one per Subject ID), cycle 1, actual injected dose): 2.03 Gy and 1.68 Gy and 3.62 Gy and 4.87 Gy and 2.56 Gy and 5.82 Gy
- Kidneys Absorbed Dose (Gy) Assuming 7.4 GBq per cycle (individual patients (one per Subject ID), one cycle): 4.8 Gy and 2.5 Gy and 6.0 Gy and 2.0 Gy and 1.7 Gy and 3.6 Gy
- Extrapolation of Absorbed Dose to 6 Cycles (Gy) Assuming 7.4 GBq per cycle (kidneys, individual patients (one per Subject ID)): 28.5 Gy and 15.0 Gy and 35.8 Gy and 11.8 Gy and 9.9 Gy and 21.3 Gy
- Extrapolation of Absorbed Dose to 6 Cycles (Gy) Assuming 7.4 GBq per cycle, mean (kidneys, mean of 6 patients): 20.4 Gy
- Kidneys Absorbed Dose (Gy), Mean (mean of 6 patients, cycle 1): 3.43 Gy
- Kidneys Absorbed Dose (Gy/GBq), Mean (mean of 6 patients, cycle 1): 0.46 Gy/GBq
- Whole Body TIAC (time integrated activity coefficient), Mean (mean of 6 patients, cycle 1): 16.6 h
- Kidneys Absorbed Dose (Gy) Assuming 7.4 GBq per cycle, mean (mean of 6 patients, one cycle): 3.4 Gy

Reference: patent US20250041461A1, “[177LU] LUTETIUM-PSMA I&T COMPOSITION AND DOSIMETRY, KIT, METHOD OF MAKING, AND METHOD OF USING THEREOF” (Curium US LLC, priority 2023, published 2025)
